In data set [1] the target is Vascular endothelial growth factor receptor 2 (Homo sapiens, UniProt P35968). In words: Inhibition of VEGFR2 activity.
For data set [2], the target named is Cyclin-dependent kinase 1 (Homo sapiens, UniProt P06493). The data set is described as follows: Inhibition of CDK1 activity.
Data set [3] is described as follows: Oral bioavailability in nude mouse at 3 mg/kg. Type of data set: ADME, organism-based. As to conditions: in vivo; call rule not given here.
Data set [4] in a line: Area under curve in nude mouse at 3 mg/kg. Type of data set: ADME, organism-based. As to conditions: in vivo. More on the design: dose 3 mg/kg.
In data set [5] the test system is Mus musculus. In words: Drug level in nude mouse plasma at 100 mg/kg, po. Type of data set: ADME, organism-based. More on the design: dose 100 mg/kg, route oral. The note with it: in vivo.
Data set [6] in a line: Half life in nude mouse at 100 mg/kg, po. The format is ADME, organism-based. More on the design: dose 100 mg/kg, route oral. The note with it: in vivo.
The subject of data set [7] is Mus musculus. In words: Decrease in body weight in C57BL/6 mouse at 100 to 175 mg/kg, po. The note with it: in vivo.

SMILES strings stand for the structures.

As a reminder, the IC50 is the concentration that inhibits the measured activity by half. A high value points to a need for much substance. As usually defined, the bioavailability is dose-corrected exposure relative to a reference, in per cent. Higher therefore signals good availability. Broadly, the AUC is the area under the concentration-time curve, a measure of exposure. The low end stands for low exposure, the high end for high exposure. The half-life is how long it takes for the measured level to halve.

Vascular endothelial growth factor receptor 2, sequence (P35968 whole entry): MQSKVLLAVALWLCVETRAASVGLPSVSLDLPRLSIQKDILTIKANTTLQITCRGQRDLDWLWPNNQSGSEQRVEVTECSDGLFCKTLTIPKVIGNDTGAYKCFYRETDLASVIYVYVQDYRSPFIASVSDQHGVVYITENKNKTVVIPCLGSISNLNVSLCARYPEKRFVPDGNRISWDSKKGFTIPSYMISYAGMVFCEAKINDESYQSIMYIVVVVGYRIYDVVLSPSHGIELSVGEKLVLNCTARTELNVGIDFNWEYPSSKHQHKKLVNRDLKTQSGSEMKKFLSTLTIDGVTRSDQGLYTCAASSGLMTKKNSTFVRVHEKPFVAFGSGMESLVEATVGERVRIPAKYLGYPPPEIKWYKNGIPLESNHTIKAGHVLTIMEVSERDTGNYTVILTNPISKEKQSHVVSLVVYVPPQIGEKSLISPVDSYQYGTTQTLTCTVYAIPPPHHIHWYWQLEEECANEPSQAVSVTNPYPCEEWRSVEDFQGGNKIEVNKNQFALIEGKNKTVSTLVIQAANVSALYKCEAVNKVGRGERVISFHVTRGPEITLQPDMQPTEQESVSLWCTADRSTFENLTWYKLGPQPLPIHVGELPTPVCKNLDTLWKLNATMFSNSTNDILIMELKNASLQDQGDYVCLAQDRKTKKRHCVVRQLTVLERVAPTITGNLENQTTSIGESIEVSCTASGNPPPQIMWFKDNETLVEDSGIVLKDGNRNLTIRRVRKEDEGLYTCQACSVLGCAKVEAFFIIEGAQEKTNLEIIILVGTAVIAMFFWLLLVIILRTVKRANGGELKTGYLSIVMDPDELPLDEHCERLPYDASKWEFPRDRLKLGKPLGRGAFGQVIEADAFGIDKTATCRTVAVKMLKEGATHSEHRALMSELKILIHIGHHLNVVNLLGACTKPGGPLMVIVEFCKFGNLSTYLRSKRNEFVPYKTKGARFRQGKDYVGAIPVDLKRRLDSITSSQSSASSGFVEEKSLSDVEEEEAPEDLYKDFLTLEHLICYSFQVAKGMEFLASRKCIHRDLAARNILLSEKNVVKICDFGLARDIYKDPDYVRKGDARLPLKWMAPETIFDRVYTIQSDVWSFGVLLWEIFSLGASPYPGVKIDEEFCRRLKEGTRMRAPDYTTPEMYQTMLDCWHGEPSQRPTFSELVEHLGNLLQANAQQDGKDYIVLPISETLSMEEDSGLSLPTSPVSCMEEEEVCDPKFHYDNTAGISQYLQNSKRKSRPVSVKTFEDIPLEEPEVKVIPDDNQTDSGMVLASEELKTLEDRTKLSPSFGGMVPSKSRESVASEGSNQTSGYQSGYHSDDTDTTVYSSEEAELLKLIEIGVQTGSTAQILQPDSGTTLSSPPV
Cyclin-dependent kinase 1, sequence (P06493 whole entry): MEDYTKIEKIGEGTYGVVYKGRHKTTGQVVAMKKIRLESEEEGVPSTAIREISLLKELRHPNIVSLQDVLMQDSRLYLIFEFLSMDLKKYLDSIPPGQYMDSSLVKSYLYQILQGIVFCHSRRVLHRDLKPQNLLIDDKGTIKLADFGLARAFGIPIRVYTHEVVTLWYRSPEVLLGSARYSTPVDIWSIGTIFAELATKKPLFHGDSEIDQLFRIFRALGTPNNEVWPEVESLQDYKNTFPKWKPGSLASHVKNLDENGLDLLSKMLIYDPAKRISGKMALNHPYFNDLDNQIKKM

Take `N#Cc1cnc(Nc2nc3ccccc3[nH]2)nc1-c1ccccc1`: the IC50 in data set [1] is 10000 nM; in data set [2] it was > 10 µM.
Turning to `N#Cc1cnc(Nc2ccc(CCO)cc2)nc1-c1nc2ccccc2s1`, the IC50 in data set [1] is 340 nM; in data set [2], 0.56 µM.
With `CC(C)(N)c1ccc(-c2nc(Nc3ccc(CCO)cc3)ncc2C#N)cc1`, the 50% inhibitory concentration (IC50) came out at 52 nM in data set [1] and 1.6 µM in data set [2].
With `N#Cc1cnc(Nc2ncccn2)nc1-c1ccccc1`, the IC50 in data set [1] is > 10000 nM; in data set [2], > 10 µM.
`N#Cc1cnc(Nc2ccc(CN3CCCC3)cc2)nc1-c1ccccc1`: the IC50 was 61 nM in data set [1] and 6.2 µM in data set [2].
For `N#Cc1cnc(Nc2ccc(CCO)cc2)nc1-c1ccc(Br)cc1`, the figures for the IC50 in data set [1] and in data set [2] were 180 nM and 2 µM, respectively.
Consider `CC(C)(O)c1ccc(-c2nc(Nc3ccc(CCO)cc3)ncc2C#N)cc1`, for which the figures for the IC50 in data set [1] and in data set [2] were 410 nM and 2.7 µM, respectively.
With `CC(C)(C)c1nc(Nc2ccc(CCO)cc2)ncc1C#N`, the IC50 in data set [1] came out at 1600 nM; in data set [2], 1.1 µM.
For `N#Cc1cnc(Nc2ccc3ccccc3c2)nc1-c1ccccc1`, the IC50 in data set [1] was 2100 nM; in data set [2], > 10 µM.
With `CN1CCN(CCc2ccc(Nc3ncc(C#N)c(-c4ccc(C(C)(C)N)cc4)n3)cc2)CC1`, the IC50 in data set [1] turned out to be 21 nM; in data set [2], 5.6 µM.
For `COc1cc(Nc2ncc(C#N)c(-c3ccccc3)n2)ccc1CN1CCCC1`, the IC50 in data set [1] turned out to be 91 nM; in data set [2], 9 µM.
For `CCc1nccn1CCc1ccc(Nc2ncc(C#N)c(-c3ccc(C(C)(C)N)cc3)n2)cc1` the same measures were 94 nM and 4.8 µM.
On to `COc1ccc(Nc2ncc(C#N)c(-c3ccccc3)n2)cc1`, for which the figures for the IC50 in data set [1] and in data set [2] were 490 nM and 3.3 µM, respectively.
Turning to `N#Cc1cnc(Nc2ccccc2Cl)nc1-c1ccccc1`, the IC50 in data set [1] was > 10000 nM; in data set [2], > 10 µM.
Regarding `CC(C)(N)c1ccc(-c2nc(Nc3cccc(CCN4CCOCC4)c3)ncc2C#N)cc1`, the IC50 in data set [1] came out at 55 nM; in data set [2] it was 5.7 µM.
For `CC(C)(N)c1ccc(-c2nc(Nc3ccc(CCN4CCOCC4)cc3)ncc2C#N)cc1`, the IC50 in data set [1] is 27 nM; in data set [2] it was 4.1 µM. Also, the bioavailability in data set [3] is 44%. The AUC in data set [4] was 15.6 µM·h. The compound also came in with a concentration with Mus musculus [5] of 12 µM. In data set [6], this compound gave a half-life of 420 min. For the same compound, in the data set on Mus musculus [7], the Activity entry is listed as “Not Active”.
As for `COc1cccc(Nc2ncc(C#N)c(-c3ccccc3)n2)c1`, the values for the IC50 in data set [1] and in data set [2] were 380 nM and 4.2 µM, respectively.
Take `N#Cc1cnc(Nc2ccc(CCC(=O)N3CCOCC3)cc2)nc1-c1ccccc1`: the IC50 in data set [1] amounted to 180 nM; in data set [2] it was 2.1 µM.
Take `COc1ccccc1Nc1ncc(C#N)c(-c2ccccc2)n1`: the concentration for half-maximal inhibition (IC50) in data set [1] is > 10000 nM; in data set [2], > 10 µM.
The like results for `N#Cc1cnc(Nc2ccc(CCO)cc2)nc1-c1ccc(S(N)(=O)=O)cc1` were, in that order, 200 nM and 1.9 µM.
Regarding `N#Cc1cnc(Nc2ccc(CCO)cc2)nc1-c1ccc2[nH]ccc2c1`, the IC50 in data set [1] is 90 nM; in data set [2], 0.41 µM.
Regarding `N#Cc1cnc(Nc2ccc(CCO)cc2)nc1-c1cccs1`, the figures for the IC50 in data set [1] and in data set [2] were 82 nM and 0.47 µM, respectively.
For `N#Cc1cnc(Nc2ccc(CCN3CCCC3)cc2)nc1-c1ccccc1` the same measures were 110 nM and 6.5 µM.
On to `N#Cc1cnc(Nc2cccc(CN3CCOCC3)c2)nc1-c1ccccc1`, for which the half-maximal inhibitory concentration (IC50) worked out at 360 nM in data set [1] and 2 µM in data set [2].
For the compound `N#Cc1cnc(Nc2ccccc2)nc1-c1ccccc1`, the IC50 in data set [1] is 1000 nM; in data set [2], > 10 µM.
With `COc1ccc(-c2nc(Nc3ccc(CCO)cc3)ncc2C#N)cc1`, the IC50 in data set [1] turned out to be 150 nM; in data set [2] it was 1.5 µM.
For `Cc1ccc(Nc2ncc(C#N)c(-c3ccccc3)n2)cc1`, the IC50 was found to be 1000 nM in data set [1] and 3.5 µM in data set [2].
With `N#Cc1cnc(Nc2ccc(CCO)cc2)nc1-c1cc2ccccc2[nH]1`, the IC50 in data set [1] was 1400 nM; in data set [2], 1.7 µM.
Consider `CC(C)(N)c1ccc(-c2nc(Nc3ccc(OCCN4CCOCC4)cc3)ncc2C#N)cc1`, for which the values for the IC50 in data set [1] and in data set [2] were 450 nM and 21 µM, respectively.
Regarding `Cc1cc2cc(Nc3ncc(C#N)c(-c4ccccc4)n3)ccc2[nH]1`, the values for the IC50 in data set [1] and in data set [2] were 410 nM and 3.3 µM, respectively.
As to `N#Cc1cnc(Nc2ccc(Cl)cc2)nc1-c1ccccc1`, the IC50 is > 10000 nM in data set [1] and > 10 µM in data set [2].
For the compound `N#Cc1cnc(Nc2ccc(CCO)cc2)nc1-c1ccccc1`, the IC50 is 200 nM in data set [1] and 2 µM in data set [2].
